Data taken from patent US20120165306A1, “PYRAZINYLPYRIDINES USEFUL FOR THE TREATMENT OF PROLIFERATIVE DISEASES” (priority 2009, published 2012).
pIC50: −log10 of the molar value.

molecular target: Cdk9/cyclinT1 (Homo sapiens, UniProt P50750); assay: Cdk9/cyclinT1 kinase assay (IMAP or Alpha Screen protocol)
Sequence (P50750 whole entry): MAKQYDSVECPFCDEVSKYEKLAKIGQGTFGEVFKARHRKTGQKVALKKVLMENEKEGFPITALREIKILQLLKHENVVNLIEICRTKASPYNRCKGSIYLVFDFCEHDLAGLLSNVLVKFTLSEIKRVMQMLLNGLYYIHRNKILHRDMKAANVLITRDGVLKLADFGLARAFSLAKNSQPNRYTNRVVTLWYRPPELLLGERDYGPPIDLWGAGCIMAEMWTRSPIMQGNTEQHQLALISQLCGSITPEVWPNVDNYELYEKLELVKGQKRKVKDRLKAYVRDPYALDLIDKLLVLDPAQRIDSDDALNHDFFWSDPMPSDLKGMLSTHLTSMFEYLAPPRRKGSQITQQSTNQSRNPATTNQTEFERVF
Sequence (O60563 whole entry partner): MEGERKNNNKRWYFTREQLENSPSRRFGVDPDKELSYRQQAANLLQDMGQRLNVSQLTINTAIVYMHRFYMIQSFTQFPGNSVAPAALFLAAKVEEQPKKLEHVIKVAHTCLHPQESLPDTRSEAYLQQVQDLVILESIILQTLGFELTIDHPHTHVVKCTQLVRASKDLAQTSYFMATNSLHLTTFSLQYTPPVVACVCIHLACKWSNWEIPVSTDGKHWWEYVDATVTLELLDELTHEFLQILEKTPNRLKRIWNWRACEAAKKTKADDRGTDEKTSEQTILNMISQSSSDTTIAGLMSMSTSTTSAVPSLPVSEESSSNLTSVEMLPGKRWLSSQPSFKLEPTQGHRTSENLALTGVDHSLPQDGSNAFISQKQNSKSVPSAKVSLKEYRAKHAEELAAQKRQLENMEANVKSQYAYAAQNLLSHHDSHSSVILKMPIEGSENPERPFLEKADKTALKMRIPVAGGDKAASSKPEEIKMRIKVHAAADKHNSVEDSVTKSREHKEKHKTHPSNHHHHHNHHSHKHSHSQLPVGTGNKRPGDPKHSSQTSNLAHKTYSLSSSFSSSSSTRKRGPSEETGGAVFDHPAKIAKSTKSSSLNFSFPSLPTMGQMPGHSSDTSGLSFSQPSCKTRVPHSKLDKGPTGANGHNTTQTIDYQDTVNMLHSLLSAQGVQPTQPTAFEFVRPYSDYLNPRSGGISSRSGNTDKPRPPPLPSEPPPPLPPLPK

Structure (SMILES)	pIC50
CC(=O)NCCNc1cncc(-c2cc(NC(=O)[C@@H]3CCCNC3)ncc2Cl)n1 [Example 19, (R)-Piperidine-3-carboxylic acid {4-[6-(2-acetylamino-ethylamino)-pyrazin-2-yl]-5-chloro-pyridin-2-yl}-amide]	6.82
CC(C)S(=O)(=O)N1CCC[C@H](C(=O)Nc2cc(-c3cncc(NCC4CCOCC4)n3)c(C(F)(F)F)cn2)C1 [Example 67, (S)-1-(Propane-2-sulfonyl)-piperidine-3-carboxylic acid (4-{6-[(tetrahydro-pyran-4-ylmethyl)-amino]-pyrazin-2-yl}-5-trifluoromethyl-pyridin-2-yl)-amide]	6.88
O=C(Nc1cc(-c2cncc(NCC3CCOCC3)n2)c(C(F)(F)F)cn1)[C@@H]1CCCNC1 [Example 61, (R)-Piperidine-3-carboxylic acid (4-{6-[(tetrahydro-pyran-4-ylmethyl)-amino]-pyrazin-2-yl}-5-trifluoromethyl-pyridin-2-yl)-amide]	6.89
C[C@H](O)CNc1cncc(-c2cc(NC(=O)[C@@H]3CCCNC3)ncc2Cl)n1 [Example 29, (R)-Piperidine-3-carboxylic acid {5-chloro-4-[6-((S)-2-hydroxy-propylamino)-pyrazin-2-yl]-pyridin-2-yl}-amide]	7.43
CCS(=O)(=O)N1CCC[C@H](C(=O)Nc2cc(-c3cncc(NCC4CCOCC4)n3)c(C(F)(F)F)cn2)C1 [Example 66, (S)-1-Ethanesulfonyl-piperidine-3-carboxylic acid (4-{6-[(tetrahydro-pyran-4-ylmethyl)-amino]-pyrazin-2-yl}-5-trifluoromethyl-pyridin-2-yl)-amide]	7.00
O=C(Nc1cc(-c2cncc(Cl)n2)c(Cl)cn1)[C@@H]1CCCNC1 [Example 38, (R)-Piperidine-3-carboxylic acid [5-chloro-4-(6-chloro-pyrazin-2-yl)-pyridin-2-yl]-amide]	5.85
CS(=O)(=O)N1CCC[C@@H](C(=O)Nc2cc(-c3cncc(NCC4CCOCC4)n3)c(Cl)cn2)C1 [Example 4, (R)-1-Methanesulfonyl-piperidine-3-carboxylic acid (5-chloro-4-{6-[(tetrahydro-pyran-4-ylmethyl)-amino]-pyrazin-2-yl}-pyridin-2-yl)-amide]	6.75
O=C(Nc1cc(-c2cncc(NCc3ccccn3)n2)c(Cl)cn1)[C@@H]1CCCNC1 [Example 17, (R)-Piperidine-3-carboxylic acid (5-chloro-4-{6-[(pyridin-2-ylmethyl)-amino]-pyrazin-2-yl}-pyridin-2-yl)-amide]	6.92
O=C(Nc1cc(-c2cncc(NCC3CCOCC3)n2)c(Cl)cn1)C1CCCC1 [Example 13, Cyclopentanecarboxylic acid (5-chloro-4-{6-[(tetrahydro-pyran-4-ylmethyl)-amino]-pyrazin-2-yl}-pyridin-2-yl)-amide]	7.82
CCN1CCC[C@@H](C(=O)Nc2cc(-c3cncc(NCC4CCOCC4)n3)c(Cl)cn2)C1 [Example 7, (R)-1-Ethyl-piperidine-3-carboxylic acid (5-chloro-4-{6-[(tetrahydro-pyran-4-ylmethyl)-amino]-pyrazin-2-yl}-pyridin-2-yl)-amide]	6.64
O=C(Nc1cc(-c2cnccn2)c(Cl)cn1)[C@@H]1CCCNC1 [Example 1, (R)-Piperidine-3-carboxylic acid (5-chloro-4-pyrazin-2-yl-pyridin-2-yl)-amide]	5.68
O=C(Nc1cc(-c2cncc(NC3CCOCC3)n2)c(Cl)cn1)[C@@H]1CCCNC1 [Example 27, (R)-Piperidine-3-carboxylic acid {5-chloro-4-[6-(tetrahydro-pyran-4-ylamino)-pyrazin-2-yl]-pyridin-2-yl}-amide]	7.32
CN(CC1CCOCC1)c1cncc(-c2cc(NC(=O)[C@@H]3CCCNC3)ncc2Cl)n1 [Example 30, (R)-Piperidine-3-carboxylic acid (5-chloro-4-{6-[methyl-(tetrahydro-pyran-4-ylmethyl)-amino]-pyrazin-2-yl}-pyridin-2-yl)-amide]	7.92
N[C@@H]1CC[C@H](C(=O)Nc2cc(-c3cncc(NCC4CCOCC4)n3)c(Cl)cn2)C1 [Example 42, (1S,3R)-3-Amino-cyclopentanecarboxylic acid (5-chloro-4-{6-[(tetrahydro-pyran-4-ylmethyl)-amino]-pyrazin-2-yl}-pyridin-2-yl)-amide]	7.60
O=C(Nc1cc(-c2cncc(NCC3CC3)n2)c(Cl)cn1)[C@@H]1CCCNC1 [Example 39, (R)-Piperidine-3-carboxylic acid {5-chloro-4-[6-(cyclopropylmethyl-amino)-pyrazin-2-yl]-pyridin-2-yl}-amide]	7.77
O=C(Nc1cc(-c2cncc(NCC3CCOCC3)n2)c(Cl)cn1)[C@H]1CCCNC1 [Example 8, (S)-Piperidine-3-carboxylic acid (5-chloro-4-{6-[(tetrahydro-pyran-4-ylmethyl)-amino]-pyrazin-2-yl}-pyridin-2-yl)-amide]	7.55
O=C(Nc1cc(-c2cncc(NCc3cccnc3)n2)c(Cl)cn1)[C@@H]1CCCNC1 [Example 25, (R)-Piperidine-3-carboxylic acid (5-chloro-4-{6-[(pyridin-3-ylmethyl)-amino]-pyrazin-2-yl}-pyridin-2-yl)-amide]	7.92
C[C@@H](O)CNc1cncc(-c2cc(NC(=O)[C@@H]3CCCNC3)ncc2Cl)n1 [Example 28, (R)-Piperidine-3-carboxylic acid {5-chloro-4-[6-((R)-2-hydroxy-propylamino)-pyrazin-2-yl]-pyridin-2-yl}-amide]	7.82

Now those with a higher pIC50, led by results:

pIC50	Structure (SMILES)
> 8.10	O=C(Nc1cc(-c2cncc(NCC3CCOCC3)n2)c(Cl)cn1)[C@@H]1CCCNC1 [Example 9, (R)-Piperidine-3-carboxylic acid (5-chloro-4-{6-[(tetrahydro-pyran-4-ylmethyl)-amino]-pyrazin-2-yl}-pyridin-2-yl)-amide]
> 8.10	O=C(Nc1cc(-c2cncc(NCc3cccc(OC(F)F)c3)n2)c(Cl)cn1)[C@@H]1CCCNC1 [Example 18, (R)-Piperidine-3-carboxylic acid {5-chloro-4-[6-(3-difluoromethoxy-benzylamino)-pyrazin-2-yl]-pyridin-2-yl}-amide]
> 8.10	C[C@H](Nc1cncc(-c2cc(NC(=O)[C@@H]3CCCNC3)ncc2Cl)n1)C1CCCCC1 [Example 36, (R)-Piperidine-3-carboxylic acid {5-chloro-4-[6-((S)-1-cyclohexyl-ethylamino)-pyrazin-2-yl]-pyridin-2-yl}-amide]
> 8.10	CN1CC(C(=O)Nc2cc(-c3cncc(NCC4CCOCC4)n3)c(Cl)cn2)CC1=O (centres unmarked) [Example 68, 1-Methyl-5-oxo-pyrrolidine-3-carboxylic acid (5-chloro-4-{6-[(tetrahydro-pyran-4-ylmethyl)-amino]-pyrazin-2-yl}-pyridin-2-yl)-amide]
> 8.10	COC(=O)N1CCC[C@H](C(=O)Nc2cc(-c3cncc(NCC4CCOCC4)n3)c(Cl)cn2)C1 [Example 49, (S)-3-(5-Chloro-4-{6-[(tetrahydro-pyran-4-ylmethyl)-amino]-pyrazin-2-yl}-pyridin-2-ylcarbamoyl)-piperidine-1-carboxylic acid methyl ester]
> 8.10	O=C(Nc1cc(-c2cncc(NCC3CCOCC3)n2)c(Cl)cn1)[C@H]1CNC[C@H]1F [Example 64, (3R,4S)-4-Fluoro-pyrrolidine-3-carboxylic acid (5-chloro-4-{6-[(tetrahydro-pyran-4-ylmethyl)-amino]-pyrazin-2-yl}-pyridin-2-yl)-amide]
> 8.10	CS(=O)(=O)N[C@@H]1CC[C@@H](C(=O)Nc2cc(-c3cncc(NCC4CCOCC4)n3)c(Cl)cn2)C1 [Example 52, (1R,3R)-3-Methanesulfonylamino-cyclopentanecarboxylic acid (5-chloro-4-{6-[(tetrahydro-pyran-4-ylmethyl)-amino]-pyrazin-2-yl}-pyridin-2-yl)-amide]
> 8.10	CC(C)S(=O)(=O)N1CCC[C@H](C(=O)Nc2cc(-c3cncc(NCC4CCOCC4)n3)c(Cl)cn2)C1 [Example 56, (S)-1-(Propane-2-sulfonyl)-piperidine-3-carboxylic acid (5-chloro-4-{6-[(tetrahydro-pyran-4-ylmethyl)-amino]-pyrazin-2-yl}-pyridin-2-yl)-amide]
> 8.10	C[C@@H](Nc1cncc(-c2cc(NC(=O)[C@@H]3CCCNC3)ncc2Cl)n1)C1CCCCC1 [Example 37, (R)-Piperidine-3-carboxylic acid {5-chloro-4-[6-((R)-1-cyclohexyl-ethylamino)-pyrazin-2-yl]-pyridin-2-yl}-amide]
> 8.10	N[C@@H]1CC[C@@H](C(=O)Nc2cc(-c3cncc(NCC4CCOCC4)n3)c(Cl)cn2)C1 [Example 44, (1R,3R)-3-Amino-cyclopentanecarboxylic acid (5-chloro-4-{6-[(tetrahydro-pyran-4-ylmethyl)-amino]-pyrazin-2-yl}-pyridin-2-yl)-amide]
> 8.10	CC(C)C(=O)Nc1cc(-c2cncc(NCC3CCOCC3)n2)c(Cl)cn1 [Example 12, N-(5-Chloro-4-{6-[(tetrahydro-pyran-4-ylmethyl)-amino]-pyrazin-2-yl}-pyridin-2-yl)-isobutyramide]
> 8.10	O=C(Nc1cc(-c2cncc(NCc3ccccc3F)n2)c(Cl)cn1)[C@@H]1CCCNC1 [Example 14, (R)-Piperidine-3-carboxylic acid {5-chloro-4-[6-(2-fluoro-benzylamino)-pyrazin-2-yl]-pyridin-2-yl}-amide]
> 8.10	CC(C)OC(=O)N1CCC[C@H](C(=O)Nc2cc(-c3cncc(NCC4CCOCC4)n3)c(Cl)cn2)C1 [Example 46, (S)-3-(5-Chloro-4-{6-[(tetrahydro-pyran-4-ylmethyl)-amino]-pyrazin-2-yl}-pyridin-2-ylcarbamoyl)-piperidine-1-carboxylic acid isopropyl ester]
> 8.10	COC(=O)N[C@@H]1CC[C@@H](C(=O)Nc2cc(-c3cncc(NCC4CCOCC4)n3)c(Cl)cn2)C1 [Example 55, [(1R,3R)-3-(5-Chloro-4-{6-[(tetrahydro-pyran-4-ylmethyl)-amino]-pyrazin-2-yl}-pyridin-2-ylcarbamoyl)-cyclopentyl]-carbamic acid methyl ester]
